Results published in PMC4487204, “The Neisseria gonorrhoeae Obg protein is an essential ribosome-associated GTPase and a potential drug target” (BMC Microbiology, 2015).

How the values were obtained:
N-His-ObgGC (NGO1990) [1] = molecular target: T1, N-His-ObgGC (NGO1990) (Neisseria gonorrhoeae, UniProt Q5F5D9); experiment: mant fluorescence enhancement, plate reader; format: binding; details: 2 uM protein, 50 mM Tris-HCl pH 8.0, 50 mM KCl, 37 C
T1 construct: gene obg

N-His-ObgGC (NGO1990) [2] = molecular target: T1, N-His-ObgGC (NGO1990); experiment: single-turnover hydrolysis, decrease of mant fluorescence; format: biochemical; details: 0.3 uM mant-GTP prebound to 16 uM protein, 5 mM MgCl2, pH 8.0, 37 C; first-order rate constant

T1 sequence (Q5F5D9 whole entry): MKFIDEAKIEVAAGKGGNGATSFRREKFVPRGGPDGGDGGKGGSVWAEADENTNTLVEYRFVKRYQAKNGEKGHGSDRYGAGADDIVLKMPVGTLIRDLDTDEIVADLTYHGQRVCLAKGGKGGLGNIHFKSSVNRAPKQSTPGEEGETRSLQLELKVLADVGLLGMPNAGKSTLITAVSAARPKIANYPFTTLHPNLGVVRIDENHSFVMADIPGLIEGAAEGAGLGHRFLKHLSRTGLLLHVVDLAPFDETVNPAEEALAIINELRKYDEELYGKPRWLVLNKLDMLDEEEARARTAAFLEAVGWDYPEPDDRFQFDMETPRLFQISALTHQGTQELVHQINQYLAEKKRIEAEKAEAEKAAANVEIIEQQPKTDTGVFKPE

**Q.** With `CNc1ccccc1C(=O)O[C@H]1[C@@H](O)[C@H](n2cnc3c(=O)[nH]c(N)nc32)O[C@@H]1COP(=O)(O)OP(=O)(O)O` [mant-GDP] as the compound, how does the “fold enhancement in mant-nucleotide fluorescence” value (N-His-ObgGC (NGO1990) [1]; 0.3 uM mant-GDP, no Mg2+) read?
**A.** 1.3 fold

**Q.** Which results are given for `CNc1ccccc1C(=O)O[C@H]1[C@@H](O)[C@H](n2cnc3c(=O)[nH]c(N)nc32)O[C@@H]1COP(=O)(O)OP(=O)(O)OP(=O)(O)O` [mant-GTP]?
**A.** fold enhancement in mant-nucleotide fluorescence (N-His-ObgGC (NGO1990) [1]; 0.3 uM mant-GTP, 5 mM Mg2+): 1.9 fold; kh (N-His-ObgGC (NGO1990) [2]): 0.00023 s⁻¹
